Reference: PubChem BioAssay (NCI)
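Compound exposure: 48 hours, 5 concentrations, 96-well plates. GI50 is the concentration that inhibits growth by half. TGI: total growth inhibition.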

Tests used:
Assay in all cases: growth of human tumour cells (NCI), 48 h
[1] = test system: NCI-H23 lung
[2] = test system: NCI-H460 lung
[3] = test system: NCI-H522 lung
[4] = test system: NCI/ADR-RES ovarian
[5] = test system: OVCAR-3 ovarian
[6] = test system: OVCAR-4 ovarian
[7] = test system: OVCAR-5 ovarian
[8] = test system: OVCAR-8 ovarian
[9] = test system: PC-3 prostate
[10] = test system: RPMI-8226 leukemia
[11] = test system: RXF 393 renal
[12] = test system: SF-268 CNS
[13] = test system: SF-295 CNS
[14] = test system: SF-539 CNS
[15] = test system: SK-MEL-2 melanoma
[16] = test system: SK-MEL-28 melanoma
[17] = test system: SK-MEL-5 melanoma
[18] = test system: SK-OV-3 ovarian
[19] = test system: SN12C renal
[20] = test system: SNB-19 CNS
[21] = test system: SNB-75 CNS
[22] = test system: SR leukemia
[23] = test system: SW-620 colon
[24] = test system: T-47D breast
[25] = test system: TK-10 renal
[26] = test system: U251 CNS
[27] = test system: UACC-257 melanoma
[28] = test system: UACC-62 melanoma
[29] = test system: UO-31 renal

CN1CCN(Cc2ccc(NC(=O)c3cncc(C#Cc4cnc5[nH]ncc5c4)c3)cc2C(F)(F)F)CC1
GI50 [1]: 2.28 µM
TGI [1]: 16.6 µM
GI50 [2]: 1.3 µM
TGI [2]: 13.9 µM
GI50 [3]: 1 µM
TGI [3]: 11.3 µM
GI50 [4]: 7.07 µM
TGI [4]: 42.1 µM
GI50 [5]: 3.04 µM
TGI [5]: 16.5 µM
GI50 [6]: 3.03 µM
TGI [6]: 25.8 µM
GI50 [7]: 3.24 µM
TGI [7]: 17.4 µM
GI50 [8]: 4.26 µM
TGI [8]: 20.3 µM
GI50 [9]: 3.7 µM
TGI [9]: 60.9 µM
GI50 [10]: 4.03 µM
TGI [10]: 50.3 µM
GI50 [11]: 0.612 µM
TGI [11]: 5.68 µM
GI50 [12]: 2.54 µM
TGI [12]: 16.8 µM
GI50 [13]: 3.13 µM
TGI [13]: 16.3 µM
GI50 [14]: 0.925 µM
TGI [14]: 4.99 µM
GI50 [15]: 0.535 µM
TGI [15]: 2.78 µM
GI50 [16]: 1.7 µM
TGI [16]: 8.66 µM
GI50 [17]: 2.71 µM
TGI [17]: 12.6 µM
GI50 [18]: 1.79 µM
TGI [18]: 13.5 µM
GI50 [19]: 1.82 µM
TGI [19]: 11.4 µM
GI50 [20]: 8.72 µM
TGI [20]: 21.4 µM
GI50 [21]: 3.4 µM
TGI [21]: 18.3 µM
GI50 [22]: 0.851 µM
TGI [22]: 11.4 µM
GI50 [23]: 1.65 µM
TGI [23]: 16.2 µM
GI50 [24]: 3.2 µM
TGI [24]: 23 µM
GI50 [25]: 3.45 µM
TGI [25]: 17.9 µM
GI50 [26]: 4.36 µM
TGI [26]: 25.4 µM
GI50 [27]: 2.86 µM
TGI [27]: 17 µM
GI50 [28]: 1.09 µM
TGI [28]: 5.56 µM
GI50 [29]: 3.23 µM
TGI [29]: 10.8 µM
